The target in assay [1] is T1, PDPK1 (Homo sapiens, UniProt O15530).
T1 sequence (O15530 1-556): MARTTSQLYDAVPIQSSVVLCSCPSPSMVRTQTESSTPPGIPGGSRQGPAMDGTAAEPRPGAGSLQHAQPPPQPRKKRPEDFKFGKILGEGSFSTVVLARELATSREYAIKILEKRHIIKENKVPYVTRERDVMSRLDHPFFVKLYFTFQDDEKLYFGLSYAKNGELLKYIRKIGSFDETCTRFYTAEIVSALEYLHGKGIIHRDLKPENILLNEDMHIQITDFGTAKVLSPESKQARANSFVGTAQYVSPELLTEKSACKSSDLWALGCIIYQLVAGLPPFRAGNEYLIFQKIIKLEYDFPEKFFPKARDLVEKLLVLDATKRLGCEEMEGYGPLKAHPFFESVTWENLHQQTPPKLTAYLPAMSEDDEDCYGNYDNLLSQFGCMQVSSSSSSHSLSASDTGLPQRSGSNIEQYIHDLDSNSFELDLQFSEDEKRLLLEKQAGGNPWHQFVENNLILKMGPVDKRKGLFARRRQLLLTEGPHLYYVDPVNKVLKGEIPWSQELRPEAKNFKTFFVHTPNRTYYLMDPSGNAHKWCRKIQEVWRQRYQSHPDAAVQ
Description: PDK1-OMNIA kinase assay (ST28-Sox peptide). In kind it is biochemical. The arrangement: purchased Invitrogen, BPS or SignalChem P3001 (Invitrogen), 40080 (BPS), P14-10H (SignalChem). The conditions noted are these: PDPK1 enzyme pre-incubated 30 min at 25° C. with compound; [ATP]=5 μM; ST28-Sox peptide substrate; read-out: Inhibition/Modification Designation (IC50, PDK1-OMNIA). On the procedure: Briefly, a 10× stock of PDPK1 enzyme from Invitrogen (P3001) or BPS (40080) or SignalChem (P14-10H), 1.13×ATP (AS001A) and ST28-Sox peptide substrate (KNZ1281C) were prepared in 1× kinase reaction buffer consisting of 20 mM Tris, pH 7.5, 5 mM MgCl2, 1 mM EGTA, 5 mM β-glycerophosphate, 5% glycerol (10× stock, KB002A) and 0.2 mM DTT (DS001A). 5 μL of enzyme were pre-incubated in a Corning (#3574) 384-well, white, non-binding surface microtiter plate (Corning, N.Y.) for 30 min at 25° C. with a 0.5 μL volume of 50% DMSO and serially diluted compounds prepared in 50% DMSO. Kinase reactions were started with the addition of 45 […] of the ST28-Sox peptide substrate and monitored every 71 seconds for 30-60 minutes at λex360/λem485 in a Synergy4 plate reader from BioTek (Winooski, Vt.). At the conclusion of each assay, progress curves from each well were examined for linear reaction kinetics and fit statistics (R^2, 95% confidence interval, absolute sum of squares). Post-lag velocity (+10 minutes to 20+ minutes) from each reaction was estimated from the slope of a plot of relative fluorescence units vs time (minutes) and normalized to the no enzyme and no inhibitor control groups for % Inhibition. The resulting inhibition values were then plotted against inhibitor concentration to estimate IC50 from log [Inhibitor] vs Response, Variable Slope model in GraphPad Prism from GraphPad Software (San Diego, Calif.).
[Reagent] used in provisional protocol(s): Invitrogen—[PDPK1]=5-10 nM, [ATP]=5 μM and [ST28-Sox]=5 μM or 10 μM (ATP KMapp=4-6 μM); BPS—[PDPK1]=10-15 nM, [ATP]=5 μM and [ST28-Sox]=10 μM (ATP KMapp=3-5 μM); SignalChem—[PDPK1]=5-10 nM, [ATP]=5 μM and [ST28-Sox]=5 μM or 10 μM (ATP KMapp ND)

Assay [2] concerns the target T1, PDPK1. Briefly: MALDI MS of intact PDPK1 incubated with compound. In kind it is binding. Also on record: purchased Millipore 14-452. The conditions noted are these: for Number of Modifications on Whole Protein: PDPK1 whole protein, MS; for mass shift of PDPK1: 10-fold excess of compound to protein. On the procedure: Intact PDPK1 was incubated for 3 hr at a 10-fold excess of compound XI-27 to protein. 3 μL aliquots of the samples were diluted with 10 μL of 0.1% TFA prior to micro C4 Ziptipping directly onto the MALDI target plate using sinapinic acid as the desorption matrix (10 mg/mL in 0.1% TFA:Acetonitrile 50:50).
Intact PDPK1 was incubated for 3 hr at a 10-fold excess of compound XI-21 to protein. 3 μL aliquots of the samples were diluted with 10 μL of 0.1% TFA prior to micro C4 Ziptipping directly onto the MALDI target plate using sinapinic acid as the desorption matrix (10 mg/mL in 0.1% TFA:Acetonitrile 50:50).
For example, Table 7 lists non-limiting examples of compounds that modify PDPK1 whole protein, the number of modifications per protein and the lysines modified within the protein. […] Also, the lysine modified in PDPK-1 by XI-27, XI-26, XI-22, and XI-21 are not the same for each compound. Without wishing to be bound to any particular theory, the position of the warhead, as presented by the scaffold and tether to the lysines in the binding site, effects different results on the modification of the different lysines in the binding site of PDPK-1.

In the next assay the target is T2, HCV NS3 protease WT 1b (Hepatitis C virus genotype 1b, UniProt P26663).
T2 construct: The single-chain proteolytic domain (NS4A21-32-GSGS-NS33-631) was cloned into pET-14b; His tag (own knowledge of vector pET-14b); made in house; host or cells: Escherichia coli BL21
Description: MALDI MS of intact HCV protease 1b WT incubated with compound. In kind it is binding. On the procedure:
Intact HCV (protease) 1bWT was incubated for 1 hr at a 10× fold excess of XVI-26 to protein. 3 ul aliquots of the samples were diluted with 10 ul of 0.1% TFA prior to micro C4 ZipTipping directly onto the MALDI target using Sinapinic acid as the desorption matrix (10 mg/mL in 0.1% TFA:Acetonitrile 50:50). […] Due to likely protein misfolding during protein purification, a small portion of the misfolded protein was not modified.
In order to determine whether the modification of the protein occurred at lysine, the pH from the above experiment was increased from 7.4 to 10.0. Because the compound lysine adduct would be an amide any increase in pH would have minimal effect on the modified protein. If however, the modification occurred at cysteine the resultant thioester bond would be unstable and the compound would hydrolyze off the protein.
Intact HCV (protease) 1bWT, C159S, and C159S/K136A were incubated for 1 hr at a 10× fold excess of XVI-26 to protein. 3 μl aliquots of the samples were diluted with 10 μl of 0.1% TFA prior to micro C4 ZipTipping directly onto the MALDI target using Sinapinic acid as the desorption matrix (10 mg/mL in 0.1% TFA:Acetonitrile 50:50).
Intact HCV (protease) WT1b was incubated for 1 hr at a 10× fold excess of XVI-1 (mw=782.87) to protein. 3 μl aliquots of the samples were diluted with 10 μl of 0.1% TFA prior to micro C4 ZipTipping directly onto the MALDI target using Sinapinic acid as the desorption matrix (10 mg/mL in 0.1% TFA:Acetonitrile 50:50). […] Due to some protein misfolding during the purification of the protein, the unfolded portion of the protein can not react with XVI-1.

In assay [3] the target is T3, HCV NS3/4A 1b protease enzyme (wild type) (Hepatitis C virus genotype 1b, UniProt P26663).
T3 construct: 10× stocks of NS3/4A protease enzyme from Bioenza (Mountain View, Calif.); purchased Bioenza
Briefly: HCV protease FRET assay (IC50_APP), wild type NS3/4A 1b. In kind it is biochemical. A digest of the protocol:
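Wild-type NS3/4A 1b protease with serially diluted compounds (from 50% DMSO stocks); reaction started at once with FRET substrate and followed 60-90 min at ex485/em520. Initial velocities (0 to 15+ min) normalised to no-inhibitor and no-enzyme controls; apparent IC50 from variable-slope log[inhibitor]-response fit.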

As to `CC(C)(C(N)=O)C(=O)NCCCNc1nc(Nc2cccc(NC(=O)CNC(=O)C3CCC(=O)S3)c2)ncc1Br` (stereo not shown) [XI-22], the IC50 at PDPK1 [1] was less than 10 nM. The “Number of Modifications on Whole Protein” value at PDPK1 [2] is 2.
The like results for `C=CC(=O)Nc1ccc(Nc2ncc(Br)c(NCCCNC(=O)C(C)(C)C(N)=O)n2)cc1` [XI-39] were, in that order, 10 to 100 nM and 1.
With `CC(C)(C(N)=O)C(=O)NCCCNc1nc(Nc2cccc(NC(=O)C3CCC(=O)S3)c2)ncc1Br` (stereo not shown) [XI-21], the IC50 on PDPK1 [1] is less than 10 nM. Further, at PDPK1 [2] (3 hr, 10-fold excess), the “mass shift of PDPK1 as percent” value is reported as 175% and the “modification of PDPK1” value is reported as “complete multiple modification”. Besides, on PDPK1 [2] (3 hr), the “mass shift of PDPK1” value is 1,009 Da. The “Number of Modifications on Whole Protein” value on PDPK1 [2] is on record as 2.
Turning to `C=C[C@@H]1C[C@]1(NC(=O)[C@@H]1CC(Oc2nccc3cc(OC)ccc23)CN1C(=O)[C@H](CCC(=O)N1C[C@@H]2CC[C@H]1C(=O)O2)NC(=O)OC(C)(C)C)C(=O)NS(=O)(=O)C1CC1` (stereo partly drawn) [XVI-3, tert-butyl(2S)-1-((2S)-2-((1R,2S)-1-(cyclopropylsulfonylcarbamoyl)-2-vinylcyclopropylcarbamoyl)-4-(6-methoxyisoquinolin-1-yloxy)pyrrolidin-1-yl)-1,5-dioxo-5-((1S,4S)-3-oxo-2-oxa-5-azabicyclo[2.2.2]octan-5-yl)pentan-2-ylcarbamate], the “MS_HCVNS3_INTACT_NS3 WT 1b 1 HR” value on HCV NS3 protease WT 1b is reported as “K (≤30% modification)”. Besides, the IC50 in assay [3] was less than 1 nM.
On to `CC(C)(C(N)=O)C(=O)NCCCNc1nc(Nc2cccc(NC(=O)CNC(=O)C3CSC(=O)C3)c2)ncc1Br` (stereo not shown) [XI-26], for which, at PDPK1 [1], the IC50 was 10 to 100 nM. The “Number of Modifications on Whole Protein” value on PDPK1 [2] turned out to be 1.
As to `C=C[C@@H]1C[C@]1(NC(=O)[C@@H]1CC(Oc2cc(-c3ccccc3)nc3cc(OC)ccc23)CN1C(=O)[C@H](CNC(=O)[C@@H]1CCC(=O)O1)NC(=O)OC(C)(C)C)C(=O)NS(=O)(=O)C1CC1` (stereo partly drawn) [XVI-24, tert-butyl(2S)-1-((2S)-2-((1R,2S)-1-(cyclopropylsulfonylcarbamoyl)-2-vinylcyclopropylcarbamoyl)-4-(7-methoxy-2-phenylquinolin-4-yloxy)pyrrolidin-1-yl)-1-oxo-3-((S)-5-oxotetrahydrofuran-2-carboxamido)propan-2-ylcarbamate], the “MS_HCVNS3_INTACT_NS3 WT 1b 1 HR” value at HCV NS3 protease WT 1b is on record as “K (≤30% modification)”. For the same molecule, in assay [3], the IC50 was in the range of 1 to 10 nM.
For the molecule `CC(C)(C(N)=O)C(=O)NCCCNc1nc(Nc2cccc(NC(=O)C3CSC(=O)C3)c2)ncc1Br` (stereo not shown) [XI-27], on PDPK1 [1], the IC50 is less than 10 nM. Also, the “modification of PDPK1” value on PDPK1 [2] (3 hr, 10-fold excess) was “complete modification”. In addition, the “mass shift of PDPK1” value on PDPK1 [2] (3 hr) amounted to 568 Da. For the same molecule, on PDPK1 [2], the “Number of Modifications on Whole Protein” value was 1.
`C=C[C@@H]1C[C@]1(NC(=O)[C@@H]1C[C@@H](OC(=O)N2Cc3cccc(F)c3C2)CN1C(=O)[C@H](CNC(=O)c1cc(C(C)=O)oc1C)NC(=O)OC(C)(C)C)C(=O)NS(=O)(=O)C1CC1` [XVI-4]: the “MS_HCVNS3_INTACT_NS3 WT 1b 1 HR” value on HCV NS3 protease WT 1b is “K (≤30% modification)”. Moreover, the IC50 in assay [3] was 100 to 1000 nM.
For the molecule `C=C[C@@H]1C[C@]1(NC(=O)[C@@H]1C[C@@H](Oc2nccc3cc(OC)ccc23)CN1C(=O)[C@H](CCC(=O)N1CCC1=O)NC(=O)OC(C)(C)C)C(=O)NS(=O)(=O)C1CC1` [XVI-1, tert-butyl (S)-1-((2S,4R)-2-((1R,2S)-1-(cyclopropylsulfonylcarbamoyl)-2-vinylcyclopropylcarbamoyl)-4-(6-methoxyisoquinolin-1-yloxy)pyrrolidin-1-yl)-1,5-dioxo-5-(2-oxoazetidin-1-yl)pentan-2-ylcarbamate], at HCV NS3 protease WT 1b (1 hr, 10× fold excess), the “conversion of HCV NS3 WT1b” value is reported as roughly 72%. For the same molecule, on HCV NS3 protease WT 1b (1 hr, 10× fold excess of compound to protein), the “positive mass shift of HCV 1bWT” value is reported as 755 Da. Moreover, the “MS_HCVNS3_INTACT_NS3 WT 1b 1 HR” value at HCV NS3 protease WT 1b is listed as “G (>70% modification)”. The IC50 in assay [3] was less than 1 nM.
In the case of `C=C[C@@H]1C[C@]1(NC(=O)[C@@H]1C[C@@H](OC(=O)N2Cc3cccc(F)c3C2)CN1C(=O)[C@H](CNC(=O)c1coc(C(C)=O)c1)NC(=O)OC(C)(C)C)C(=O)NS(=O)(=O)C1CC1` [XVI-5], the “MS_HCVNS3_INTACT_NS3 WT 1b 1 HR” value on HCV NS3 protease WT 1b is “K (≤30% modification)”. In addition, in assay [3], the IC50 was in the range of 100 to 1000 nM.
For `C=CC(=O)Nc1cccc(Nc2ncc(Br)c(NCCCNC(=O)C(C)(C)C(N)=O)n2)c1` [XI-53], the “Number of Modifications on Whole Protein” value on PDPK1 [2] was 1.

(Values after patent publication US11542492B2 (Celgene CAR LLC, priority 2009, dated 2023).)
